The text below walks through data of ChEMBL document CHEMBL5653615 (J Biol Chem, 2013).

Assay [1] concerns the target Calcium/calmodulin-dependent protein kinase kinase 1 (Homo sapiens) (UniProt Q8N5S9). The assay can be described thus: Inhibition of human CAMKK1 at 500 nM by HotSpot assay relative to control.
Assay [2] deals with Receptor-type tyrosine-protein kinase FLT3 (Homo sapiens) (UniProt P36888). The experiment in a line: Inhibition of human FLT3 at 18.6 nM by HotSpot assay relative to control.
The target in assay [3] is CDK3/Cyclin E (Homo sapiens) (UniProt P24864+Q00526). The assay can be described thus: Inhibition of human CDK3/cyclin E at 18.6 nM by HotSpot assay relative to control. It counts as protein-complex assay.
For assay [4], the target named is T1, NUAK family SNF1-like kinase 2 (Homo sapiens) (UniProt Q9H093).
T1 sequence (whole entry): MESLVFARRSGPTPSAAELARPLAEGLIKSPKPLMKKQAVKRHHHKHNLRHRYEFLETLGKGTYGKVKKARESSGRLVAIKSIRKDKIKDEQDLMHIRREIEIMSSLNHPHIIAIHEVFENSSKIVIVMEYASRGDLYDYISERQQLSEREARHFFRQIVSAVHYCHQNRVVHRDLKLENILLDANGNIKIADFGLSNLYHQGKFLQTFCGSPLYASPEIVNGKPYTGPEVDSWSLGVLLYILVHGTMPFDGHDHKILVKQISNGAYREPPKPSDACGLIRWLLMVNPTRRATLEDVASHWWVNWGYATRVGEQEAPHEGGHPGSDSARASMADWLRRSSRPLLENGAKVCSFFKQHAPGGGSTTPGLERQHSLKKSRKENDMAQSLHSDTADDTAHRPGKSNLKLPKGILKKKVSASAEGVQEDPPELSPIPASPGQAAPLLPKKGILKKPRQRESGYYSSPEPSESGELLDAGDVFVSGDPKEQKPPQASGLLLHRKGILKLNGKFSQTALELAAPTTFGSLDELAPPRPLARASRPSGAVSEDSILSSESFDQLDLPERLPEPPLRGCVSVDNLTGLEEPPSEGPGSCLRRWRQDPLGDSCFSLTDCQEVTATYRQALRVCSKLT
The assay can be described thus: Inhibition of human NUAK2 at 18.6 nM by HotSpot assay relative to control.

Assay [5] has as its target T2, Ephrin type-A receptor 3 (Homo sapiens) (UniProt P29320).
T2 sequence (whole entry): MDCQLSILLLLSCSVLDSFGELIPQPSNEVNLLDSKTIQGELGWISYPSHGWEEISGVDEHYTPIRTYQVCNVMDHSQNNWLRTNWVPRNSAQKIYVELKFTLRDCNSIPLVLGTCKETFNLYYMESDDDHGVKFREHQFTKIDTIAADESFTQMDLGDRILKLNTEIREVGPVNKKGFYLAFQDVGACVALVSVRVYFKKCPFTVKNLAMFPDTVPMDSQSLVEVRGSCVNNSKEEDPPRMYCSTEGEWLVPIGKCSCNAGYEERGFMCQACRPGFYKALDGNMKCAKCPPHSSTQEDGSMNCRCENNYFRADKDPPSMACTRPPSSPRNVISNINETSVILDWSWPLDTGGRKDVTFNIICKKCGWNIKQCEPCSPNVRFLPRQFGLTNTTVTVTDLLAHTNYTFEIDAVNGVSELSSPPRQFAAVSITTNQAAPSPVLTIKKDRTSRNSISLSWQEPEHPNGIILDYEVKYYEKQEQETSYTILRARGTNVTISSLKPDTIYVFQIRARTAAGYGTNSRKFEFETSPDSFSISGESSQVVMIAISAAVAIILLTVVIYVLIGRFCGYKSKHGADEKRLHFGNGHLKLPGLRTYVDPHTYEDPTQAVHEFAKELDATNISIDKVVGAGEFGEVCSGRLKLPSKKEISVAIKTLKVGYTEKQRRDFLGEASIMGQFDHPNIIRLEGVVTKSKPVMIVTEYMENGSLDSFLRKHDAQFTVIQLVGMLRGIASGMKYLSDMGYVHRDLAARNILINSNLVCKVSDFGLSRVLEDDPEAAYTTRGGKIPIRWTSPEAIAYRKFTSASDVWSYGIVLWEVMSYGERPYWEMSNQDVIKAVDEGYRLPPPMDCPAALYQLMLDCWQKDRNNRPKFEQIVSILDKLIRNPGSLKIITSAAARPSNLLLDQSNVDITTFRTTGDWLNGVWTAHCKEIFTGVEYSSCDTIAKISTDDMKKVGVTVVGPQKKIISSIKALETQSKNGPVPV
The experiment in a line: Inhibition of human EPHA3 at 1.82 nM by HotSpot assay relative to control.

Assay [6] deals with LIM domain kinase 1 (Homo sapiens) (UniProt P53667). The experiment in a line: Inhibition of human LIMK1 at 1.82 nM by HotSpot assay relative to control.
Assay [7] addresses T3, Protein kinase C iota type (Homo sapiens) (UniProt P41743).
T3 sequence (whole entry): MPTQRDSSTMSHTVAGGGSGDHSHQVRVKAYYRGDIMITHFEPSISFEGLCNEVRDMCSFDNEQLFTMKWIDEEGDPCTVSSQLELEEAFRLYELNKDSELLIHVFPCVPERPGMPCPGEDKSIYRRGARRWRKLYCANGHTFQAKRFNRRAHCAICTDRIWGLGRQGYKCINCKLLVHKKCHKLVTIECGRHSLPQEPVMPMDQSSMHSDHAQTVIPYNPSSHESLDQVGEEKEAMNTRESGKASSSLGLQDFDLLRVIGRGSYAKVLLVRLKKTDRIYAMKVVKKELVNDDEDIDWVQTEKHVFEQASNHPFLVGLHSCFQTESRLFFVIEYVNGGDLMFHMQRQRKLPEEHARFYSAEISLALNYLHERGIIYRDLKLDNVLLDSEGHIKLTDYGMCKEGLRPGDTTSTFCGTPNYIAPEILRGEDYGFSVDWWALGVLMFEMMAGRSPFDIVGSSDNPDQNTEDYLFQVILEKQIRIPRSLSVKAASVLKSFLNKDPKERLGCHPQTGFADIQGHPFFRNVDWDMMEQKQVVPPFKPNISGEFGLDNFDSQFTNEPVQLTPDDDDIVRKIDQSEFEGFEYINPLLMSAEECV
The assay can be described thus: Inhibition of human PKCiota at 1.82 nM by HotSpot assay relative to control.

CDK3/Cyclin E (Homo sapiens), sequence (P24864 whole entry, looked up): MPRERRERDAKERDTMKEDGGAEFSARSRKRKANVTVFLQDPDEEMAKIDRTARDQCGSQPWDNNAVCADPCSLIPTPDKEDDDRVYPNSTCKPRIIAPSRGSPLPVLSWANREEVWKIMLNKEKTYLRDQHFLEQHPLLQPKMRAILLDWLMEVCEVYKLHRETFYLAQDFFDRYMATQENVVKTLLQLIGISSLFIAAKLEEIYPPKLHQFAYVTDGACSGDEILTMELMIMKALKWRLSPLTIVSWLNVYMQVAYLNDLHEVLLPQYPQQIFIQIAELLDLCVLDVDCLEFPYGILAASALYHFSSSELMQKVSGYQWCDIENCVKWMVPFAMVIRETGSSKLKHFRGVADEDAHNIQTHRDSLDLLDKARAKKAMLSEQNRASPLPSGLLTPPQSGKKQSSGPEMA
CDK3/Cyclin E (Homo sapiens), sequence (Q00526 whole entry, looked up): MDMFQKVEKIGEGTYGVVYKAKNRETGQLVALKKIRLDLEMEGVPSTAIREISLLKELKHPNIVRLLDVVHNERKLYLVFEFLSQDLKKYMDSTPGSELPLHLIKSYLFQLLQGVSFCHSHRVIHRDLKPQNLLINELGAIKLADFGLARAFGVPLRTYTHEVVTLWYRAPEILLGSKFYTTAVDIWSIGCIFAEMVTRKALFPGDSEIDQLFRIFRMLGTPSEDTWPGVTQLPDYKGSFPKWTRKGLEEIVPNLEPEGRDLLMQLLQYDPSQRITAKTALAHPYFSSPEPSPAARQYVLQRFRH
LIM domain kinase 1 (Homo sapiens), sequence (P53667 whole entry, looked up, the tested form may be a part): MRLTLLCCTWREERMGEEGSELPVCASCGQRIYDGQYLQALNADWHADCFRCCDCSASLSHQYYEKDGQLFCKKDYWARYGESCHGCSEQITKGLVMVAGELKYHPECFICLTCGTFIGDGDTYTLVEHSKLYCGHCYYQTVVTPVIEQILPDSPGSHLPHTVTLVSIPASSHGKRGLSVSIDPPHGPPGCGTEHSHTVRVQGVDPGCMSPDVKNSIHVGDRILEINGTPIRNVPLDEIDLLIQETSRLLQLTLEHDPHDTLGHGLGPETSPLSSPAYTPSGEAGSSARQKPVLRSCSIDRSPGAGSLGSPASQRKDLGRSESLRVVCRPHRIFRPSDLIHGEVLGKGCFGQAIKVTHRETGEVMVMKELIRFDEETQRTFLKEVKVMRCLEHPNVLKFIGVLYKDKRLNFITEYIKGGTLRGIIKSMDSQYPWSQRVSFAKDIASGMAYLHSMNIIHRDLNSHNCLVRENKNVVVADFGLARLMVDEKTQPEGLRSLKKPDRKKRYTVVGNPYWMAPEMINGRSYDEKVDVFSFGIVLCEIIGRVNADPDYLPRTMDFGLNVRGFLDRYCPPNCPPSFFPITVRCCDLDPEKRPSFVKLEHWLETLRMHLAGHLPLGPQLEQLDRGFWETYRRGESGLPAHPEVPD
Receptor-type tyrosine-protein kinase FLT3 (Homo sapiens), sequence (P36888 whole entry): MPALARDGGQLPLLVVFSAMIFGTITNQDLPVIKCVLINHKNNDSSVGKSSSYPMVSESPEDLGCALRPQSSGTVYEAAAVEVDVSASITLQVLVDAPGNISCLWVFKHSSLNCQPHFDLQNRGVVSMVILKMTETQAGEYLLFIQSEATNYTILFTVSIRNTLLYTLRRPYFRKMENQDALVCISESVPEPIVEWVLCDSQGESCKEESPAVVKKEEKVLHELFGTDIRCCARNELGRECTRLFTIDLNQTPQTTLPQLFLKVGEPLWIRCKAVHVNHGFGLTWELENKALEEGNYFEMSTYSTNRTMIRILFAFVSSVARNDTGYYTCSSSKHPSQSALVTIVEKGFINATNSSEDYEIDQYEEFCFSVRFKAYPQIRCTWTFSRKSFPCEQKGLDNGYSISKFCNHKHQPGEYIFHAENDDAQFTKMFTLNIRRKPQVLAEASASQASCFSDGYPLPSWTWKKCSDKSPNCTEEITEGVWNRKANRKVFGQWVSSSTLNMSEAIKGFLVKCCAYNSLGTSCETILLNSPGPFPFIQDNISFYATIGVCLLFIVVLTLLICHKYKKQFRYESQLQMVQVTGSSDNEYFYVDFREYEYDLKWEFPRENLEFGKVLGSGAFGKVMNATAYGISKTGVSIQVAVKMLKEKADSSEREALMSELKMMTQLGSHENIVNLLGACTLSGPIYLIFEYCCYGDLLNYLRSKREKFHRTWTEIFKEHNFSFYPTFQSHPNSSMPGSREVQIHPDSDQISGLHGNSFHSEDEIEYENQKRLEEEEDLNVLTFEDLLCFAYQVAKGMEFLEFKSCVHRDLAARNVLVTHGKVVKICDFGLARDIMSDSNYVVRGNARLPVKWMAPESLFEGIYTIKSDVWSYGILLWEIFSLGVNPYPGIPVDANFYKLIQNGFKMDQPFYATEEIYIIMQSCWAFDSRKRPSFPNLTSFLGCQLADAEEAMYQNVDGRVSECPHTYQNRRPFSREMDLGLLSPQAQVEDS
Calcium/calmodulin-dependent protein kinase kinase 1 (Homo sapiens), sequence (Q8N5S9 whole entry, looked up): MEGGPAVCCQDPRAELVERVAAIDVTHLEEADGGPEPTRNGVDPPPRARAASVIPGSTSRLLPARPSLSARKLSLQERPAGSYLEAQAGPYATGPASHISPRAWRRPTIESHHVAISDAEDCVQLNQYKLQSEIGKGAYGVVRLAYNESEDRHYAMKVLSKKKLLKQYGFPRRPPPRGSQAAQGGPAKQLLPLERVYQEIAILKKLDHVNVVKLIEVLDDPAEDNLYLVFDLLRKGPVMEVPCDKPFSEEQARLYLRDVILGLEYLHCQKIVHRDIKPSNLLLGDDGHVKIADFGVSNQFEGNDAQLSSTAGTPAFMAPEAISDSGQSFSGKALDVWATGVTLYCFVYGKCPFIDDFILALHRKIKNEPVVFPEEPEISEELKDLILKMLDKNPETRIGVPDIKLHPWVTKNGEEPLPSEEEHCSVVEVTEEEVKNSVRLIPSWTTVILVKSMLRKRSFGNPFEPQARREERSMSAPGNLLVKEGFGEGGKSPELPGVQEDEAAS

Turning to `Oc1n[nH]c2nnc(-c3c(-c4ccccc4)nn4ccccc34)cc12`, in assay [1], the inhibition – broadly, the relative decrease from the control value, in per cent – was -9.31%.

`C[C@]1(O)C[C@@H](c2nc(-c3ccc4ccc(-c5ccccc5)nc4c3)c3c(N)nccn32)C1`: the inhibition is -4.3% in assay [2], 0.86% in assay [3] and 11% in assay [4].

In the case of `C[C@@]1(C(=O)Nc2ccc(F)nc2)CCCN1c1nc(Nc2cc(C3CC3)n[nH]2)c2cccn2n1`, the inhibition in assay [5] is 6.1%; in assay [6], -7.35%; in assay [7] it was -0.86%.
